Assay results as given in PMC3549755, “A comparison of the ability of rilpivirine (TMC278) and selected analogues to inhibit clinically relevant HIV-1 reverse transcriptase mutants” (Retrovirology, 2012).
Read-outs that look alike come from different tables or passages of the source.

Tests used:
[1] = system: viral vector with K103N mutant HIV-1 RT; assay: single-round infectivity assay, luciferase reporter, K103N RT vector; type: cell-based; settings: Human immunodeficiency virus 1; HOS cells, reduction of luciferase reporter activity, SD in parentheses
Source text: (§1) We examined the effects of rilpivirine and the analogues on HIV-1 replication using a previously described assay and report the concentrations at which luciferase reporter activity was reduced by half relative to uninhibited controls (EC50) with standard deviations in parentheses. In the assay, viral vectors that replicate using WT HIV reverse transcriptase or one of several mutants (L100I, K103N, V106A, E138K, Y181C, Y188L, H221Y and the double mutant K103N/Y181C) were used to infect cells in a single round assay. These mutants were chosen either because they are known NNRTI resistance mutations (L100I, K103N, Y181C, and the K103N/Y181C double mutant), they were selected in patients in rilpivirine clinical trials (E138K and H221Y), or they are positioned to make significant Van der Waals contacts with rilpivirine (V106A and Y188L). All compounds were initially screened against a panel that included at least one RT mutant from all three groups (WT, K103N, E138K, Y181C and Y188L). The cytotoxicity of the compounds was also determined to establish the therapeutic index of each of the compounds.
(§2) Procedures for virion production and cell-based assay have been reported. Briefly, all cell cultures were maintained in Dulbecco’s modified Eagle’s medium (Invitrogen, Carlsbad, CA) with 5% (v/v) fetal bovine serum, 5% newborn calf serum, penicillin (50 units/mL) and streptomycin (50 μg/mL) (Quality Biological, Gaithersburg, MD). […]. Transfected cells were incubated at 37°C for 8 hrs, washed twice with PBS, fresh media was added and the cells were returned to the incubator for 48 hrs. The pNLNgoMIVR^+ΔEnv.LUC plasmid encodes the HIV-1 genome with an Env deletion and either WT HIV-1 RT, or one of the following mutants: L100I, K103N, V106A, E138K, Y181C, Y188L, H221Y, or K103N/Y181C. Supernatants from each plate were clarified by low-speed centrifugation (3,000xg for 20 min), then treated with 200 U DNase I (Roche Applied Science, Mannheim, Germany) at room temperature for 3 hours. Viral supernatants were stored at −20°C until used.
(§3) One day prior to infection, 100 μL of human osteosarcoma (HOS) cells were added to each well of a 96-well plate at a density of 4x10^4 cells/mL. Plates were incubated overnight at 37°C. On the day of infection, 10X drug stocks were prepared by serial dilution in media from an initial 10 mM stock solution in DMSO. Cells in the 96-well plate were pre-treated by the addition of 22 μL of the appropriate drug stock and returned to the incubator for 3 hours. Thawed virus stocks were diluted 1:2 in media, then 100 μL of virus was added to the pre-treated cells, bringing the final drug concentrations to 0.1 nM to 100 nM, with DMSO-treated cells (no drug) serving as a reference. In addition, 12 wells of cells treated with media and no virus served as negative controls. Plates were returned to the incubator for an additional 42 hours, at which time the luciferase activity was determined using Steady-Lite Plus kits (PerkinElmer, Waltham, MA). Background luciferase activity, as measured for the negative controls, was subtracted from the activities measured for each infected well. Drug-free, DMSO-treated wells were normalized to 100% infectivity. Infectivity at each drug concentration was determined as a percentage of these drug-free infections. Drug concentration versus percent infectivity was plotted for each RT-inhibitor combination, and the data were fit to a four-parameter sigmoidal curve using KaleidaGraph 4.0 (Synergy Software, Reading, PA). The inflection point of each curve is reported as the IC50. All values are the mean of triplicate infections.

[2] = system: viral vector with E138K mutant HIV-1 RT; assay: single-round infectivity assay, luciferase reporter, E138K RT vector; type: cell-based; settings: Human immunodeficiency virus 1; HOS cells, reduction of luciferase reporter activity, SD in parentheses
Source text: as §1, §2, §3

[3] = system: viral vectors that replicate using WT HIV reverse transcriptase; assay: single-round infectivity assay, luciferase reporter, vector with WT RT; type: cell-based, HIV-1; settings: HOS cells, reduction of luciferase reporter activity, SD in parentheses, read-out: EC50 WT
Source text: as §1, §2, §3

[4] = system: viral vector with Y188L mutant HIV-1 RT; assay: single-round infectivity assay, luciferase reporter, Y188L RT vector; type: cell-based; settings: Human immunodeficiency virus 1; HOS cells, reduction of luciferase reporter activity, SD in parentheses
Source text: as §1, §2, §3

[5] = system: viral vector with Y181C mutant HIV-1 RT; assay: single-round infectivity assay, luciferase reporter, Y181C RT vector; type: cell-based; settings: Human immunodeficiency virus 1; HOS cells, reduction of luciferase reporter activity, SD in parentheses
Source text: as §1, §2, §3

HOS cells = assay: cytotoxicity assay (ATP-Lite cell viability); type: cell-based, human; settings: ratio of CC50/EC50 (WT)
Description: (§4) One day prior to treatment, HOS cells were prepared in 96-well plates as described for the infectivity assays, except that 12 wells per plate were treated with cell-free media to serve as negative controls. The following day, serial dilutions of drug stocks were prepared in media from 10 mM stocks in DMSO. Each well received 11 μL of the appropriate drug concentration or DMSO-treated, drug-free media. Final drug concentrations ranged from 0.5 μM to 300 μM. The drug-free wells served as references. Plates were then incubated at 37°C for 48 hours. Cell viability was determined using luciferase reporter ATP-Lite kits (PerkinElmer). As described for the infectivity assays, drug-free reference wells were normalized to 100%, and viabilities at different drug concentrations were determined as a percentage of these references. Data were plotted and analyzed in the same manner as the IC50 data, with the inflection points of the curves reported as CC50.

[6] = cytotoxicity assay (ATP-Lite cell viability); type: cell-based, human; settings: human, HOS cells, 48 hours, SD in parentheses
Description: as §4

[7] = Human immunodeficiency virus 1, HOS

SMILES | EC50 [1] [nM] | EC50 [2] [nM] | EC50 [3, 7] [nM] | EC50 [4] [nM] | EC50 [5] [nM] | Therapeutic Index (T.I.) (HOS cells) | CC50 at 48 h [6] [nM] | EC50 [3] [nM]
Cc1cc(/C=C/C#N)cc(C)c1Nc1nc(Nc2ccc(F)cc2)c2nc[nH]c2n1 [Analogue 17] | 1.3 | 3.1 | 1.7 | 15 | 2 | 7.1x10^3 | 12000 | 
Cc1cc(/C=C/C#N)cc(C)c1Nc1nc(Nc2ccc3c(c2)CCC3)c2nc[nH]c2n1 [Analogue 23] | 1.7 | 7.9 | 0.4 | > 100 | 4.1 | 7.5x10^4 | 30000 | 
COc1ccc(Nc2nc(Nc3c(C)cc(/C=C/C#N)cc3C)nc3[nH]cnc23)cc1 [Analogue 16] | 0.2 | 1.1 | 0.2 | 29 | 2.3 | 6.0x10^4 | 12000 | 0.4
Cc1cc(/C=C/C#N)cc(C)c1Nc1nc(Nc2ccc(C(F)(F)F)cc2)c2nc[nH]c2n1 [Analogue 15] | 0.9 | 4.7 | 1.5 | 17 | 3.3 | 1.1x10^4 | 17000 | 
Cc1cc(/C=C/C#N)cc(C)c1Nc1nc(Nc2ccccn2)c2nc[nH]c2n1 [Analogue 19] | > 100 | > 100 | > 100 | > 100 | > 100 | < 3.6x10^2 | 36000 | 
Cc1cc(/C=C/C#N)cc(C)c1Nc1nc(Nc2ccc3c(c2)OCO3)c2nc[nH]c2n1 [Analogue 24] | 0.6 | 1.6 | 0.1 | 23 | 3 | 1.9x10^5 | 19000 | 
Cc1cc(/C=C/C#N)cc(C)c1Nc1nc(Nc2ccc3nn[nH]c3c2)c2nc[nH]c2n1 [Analogue 25] | > 100 | > 100 | 19 | > 100 | > 100 | 5.3x10^3 | 100000 | 
Cc1cc(/C=C/C#N)cc(C)c1Nc1nc(Nc2cc(F)cc(F)c2)c2nc[nH]c2n1 [Analogue 18] | 4.9 | 28 | 9.3 | > 100 | 56 | 1.4x10^3 | 13000 | 
CC(=O)c1ccc(Nc2nc(Nc3c(C)cc(/C=C/C#N)cc3C)nc3[nH]cnc23)cc1 [Analogue 14] | 0.3 | 1.5 | 0.3 | 64 | 5.9 | 2.7x10^4 | 8000 | 
COc1ccc(Cn2cnc3c(Nc4ccc(C#N)cc4)nc(Nc4c(C)cc(/C=C/C#N)cc4C)nc32)cc1 [Analogue 12] | 1.9 | 15 | 2.7 | 12 | 6.5 | 3.1x10^4 | 83000 | 
COc1ccc(Cn2cnc3c(Nc4c(C)cc(/C=C/C#N)cc4C)nc(Nc4ccc(C#N)cc4)nc32)cc1 [Analogue 10] | 1 | 14 | 1.1 | > 100 | 9.5 | 1.4x10^5 | 154000 | 
Cc1nc2cc(Nc3nc(Nc4c(C)cc(/C=C/C#N)cc4C)nc4[nH]cnc34)ccc2s1 [Analogue 22] | 2.2 | 8.3 | 0.6 | > 100 | 6.1 | 9.5x10^4 | 57000 | 
